The record followed here is patent US20210040118A1, “IMMUNOMODULATORS, COMPOSITIONS AND METHODS THEREOF” (BETTA PHARMACEUTICALS CO., LTD, priority 2018, published 2021).

SMILES strings stand for the structures.

In the assay the target is T1, PD-1/PD-L1 (Homo sapiens, UniProt Q9NZQ7).
T1 construct: Recombinant human PD-L1 protein (19-238) with a His-tag at the C-terminus; purchased AcroBiosystems PD1-H5229 (PD-L1); PD1-H5257 (PD-1)
T1 sequence (Q9NZQ7 19-238): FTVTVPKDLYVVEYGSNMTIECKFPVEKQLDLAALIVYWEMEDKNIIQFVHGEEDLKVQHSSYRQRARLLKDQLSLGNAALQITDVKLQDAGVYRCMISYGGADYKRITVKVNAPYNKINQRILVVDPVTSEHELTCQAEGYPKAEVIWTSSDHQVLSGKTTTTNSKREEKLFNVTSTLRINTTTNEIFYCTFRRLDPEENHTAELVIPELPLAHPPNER
As to the kind of experiment: PD-1/PD-L1 homogenous time-resolved fluorescence (HTRF) binding assay. As to conditions: recombinant human PD-L1 (19-238) His-tag / human PD-1 (25-167) Fc tag, class symbols. A digest of the protocol: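 Inhibitors were preincubated 40 min at 25°C with 10 nM His-tagged human PD-L1 (19-238) and 3 nM Fc-tagged human PD-1 (25-167) in PBS pH 7.4 containing Tween-20, BSA and 1% DMSO. After 60 min with europium anti-human IgG and anti-His-APC, 665/620 nm signal ratio gave IC50 via percent-control fit.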
Regarding `NCc1nc(C(=O)N2CCc3c(-c4cccc5c4CCN5C(=O)c4n[nH]c(CN)n4)cccc32)n[nH]1` [Example 137, (5-((12-azanyl)methyl)-1H-1,2,4-triazol-3-yl)(1′-(5-(aminomethyl)-1H-1,2,4-triazole-3-carbonyl)-[4,4′-biindolin]-1-yl)methanone], the IC50 lay within 100 to 200 nM.
`Cc1c(Nc2nccc3cc(CNCC(=O)O)cnc23)cccc1-c1cccc(Nc2nccc3cc(CNCC(=O)O)cnc23)c1C` [Example 138, 2,2′-(((((2,2′-dimethyl-[1,1′-biphenyl]-3,3′-diyl)bis(azanediyl))bis(1,7-naphthyridine-8,3-diyl))bis(methylene))bis(azanediyl))diacetic acid]: the IC50 is less than 25 nM.
Next, `Cc1c(Nc2nccc3cc(CNCCO)cnc23)cccc1-c1cccc(Nc2nccc3cc(CNCC(=O)O)cnc23)c1C` [Example 139, ((8-((3′-((3-(((2-hydroxyethyl)amino)methyl)-1,7-naphthyridin-8-yl)amino)-2,2′-dimethyl-[1,1′-biphenyl]-3-yl)amino)-1,7-naphthyridin-3-yl)methyl)glycine]: less than 25 nM; `Cc1c(Nc2nccc3cc(CNC(C)C(=O)O)cnc23)cccc1-c1cccc(Nc2nccc3cc(CNC(C)C(=O)O)cnc23)c1C` (stereo not drawn) [Example 140, 2,2′-(((((2,2′-dimethyl-[1,1′-biphenyl]-3,3′-diyl)bis(azanediyl))bis(1,7-naphthyridine-8,3-diyl))bis(methylene))bis(azanediyl))dipropionic acid]: less than 25 nM; `Cc1c(Nc2nccc3cc(CNCC(=O)O)cnc23)cccc1-c1cccc(Nc2nccc3cc(CNC[C@@H](O)CC(=O)O)cnc23)c1C` [Example 141, (S)-4-(((8-((3′-((3-(((carboxymethyl)amino)methyl)-1,7-naphthyridin-8-yl)amino)-2,2′-dimethyl-[1,1′-biphenyl]-3-yl)amino)-1,7-naphthyridin-3-yl)methyl)amino)-3-hydroxybutanoic acid]: less than 25 nM.
Next, `Cc1c(Nc2nccc3cc(CNC(C(=O)O)C(C)C)cnc23)cccc1-c1cccc(Nc2nccc3cc(CNC(C(=O)O)C(C)C)cnc23)c1C` (stereo not drawn) [Example 142, 2,2′-(((((2,2′-dimethyl-[1,1′-biphenyl]-3,3′-diyl)bis(azanediyl))bis(1,7-naphthyridine-8,3-diyl))bis(methylene))bis(azanediyl))bis(3-methylbutanoic acid)]: less than 25 nM; `Cc1c(Nc2nccc3cc(CNC[C@@H](O)CC(=O)O)cnc23)cccc1-c1cccc(Nc2nccc3cc(CNC[C@@H](O)CC(=O)O)cnc23)c1C` [Example 143, (3S,3'S)-4,4′-(((((2,2′-dimethyl-[1,1′-biphenyl]-3,3′-diyl)bis(azanediyl))bis(1,7-naphthyridine-8,3-diyl))bis(methylene))bis(azanediyl))bis(3-hydroxybutanoic acid)]: less than 25 nM.
Take `Cc1c(Nc2nccc3cc(CNCC(N)=O)cnc23)cccc1-c1cccc(Nc2nccc3cc(CNCC(N)=O)cnc23)c1C` [Example 144, 2,2′-(((((2,2′-dimethyl-[1,1′-biphenyl]-3,3′-diyl)bis(azanediyl))bis(1,7-naphthyridine-8,3-diyl))bis(methylene))bis(azanediyl))diacetamide]: the IC50 is less than 25 nM.
As for `Cc1c(Nc2nccc3cc(CNCC(=O)N(C)C)cnc23)cccc1-c1cccc(Nc2nccc3cc(CNCC(=O)N(C)C)cnc23)c1C` [Example 145, 2,2′-(((((2,2′-dimethyl-[1,1′-biphenyl]-3,3′-diyl)bis(azanediyl))bis(1,7-naphthyridine-8,3-diyl))bis(methylene))bis(azanediyl))bis(N,N-dimethylacetamide)], the IC50 was less than 25 nM.
As for `Cc1c(Nc2nccc3cc(CNCC(=O)N(C)C)cnc23)cccc1-c1cccc(Nc2nccc3cc(CNCC(F)(F)F)cnc23)c1C` [Example 146, 2-(((8-((2,2′-dimethyl-3′-((3-(((2,2,2-trifluoroethyl)amino)methyl)-1,7-naphthyridin-8-yl)amino)-[1,1′-biphenyl]-3-yl)amino)-1,7-naphthyridin-3-yl)methyl)amino)-N,N-dimethylacetamide], the IC50 was less than 25 nM.
On to `CNC(=O)CNCc1cnc2c(Nc3cccc(-c4cccc(Nc5nccc6cc(CNCC(=O)N(C)CCO)cnc56)c4C)c3C)nccc2c1` [Example 147, 2-(((8-((2,2′-dimethyl-3′-((3-(((2-(methylamino)-2-oxoethyl)amino)methyl)-1,7-naphthyridin-8-yl)amino)-[1,1′-biphenyl]-3-yl)amino)-1,7-naphthyridin-3-yl)methyl)amino)-N-(2-hydroxyethyl)-N-methylacetamide], for which the IC50 was less than 25 nM.
With `Cc1c(Nc2nccc3cc(CNCC(=O)O)cnc23)cccc1-c1cccc(Nc2nccc3cc(CNCC(=O)N(C)C)cnc23)c1C` [Example 148, ((8-((3′-((3-(((2-(dimethylamino)-2-oxoethyl)amino)methyl)-1,7-naphthyridin-8-yl)amino)-2,2′-dimethyl-[1,1′-biphenyl]-3-yl)amino)-1,7-naphthyridin-3-yl)methyl)glycine] the figure was less than 25 nM; with `Cc1c(Nc2nccc3cc(CNCC(=O)O)cnc23)cccc1-c1cccc(Nc2nccc3cc(CN4CCC4)cnc23)c1C` [Example 149, ((8-((3′-((3-(azetidin-1-ylmethyl)-1,7-naphthyridin-8-yl)amino)-2,2′-dimethyl-[1,1′-biphenyl]-3-yl)amino)-1,7-naphthyridin-3-yl)methyl)glycine], less than 25 nM; with `Cc1c(Nc2nccc3cc(CN4CC(O)C4)cnc23)cccc1-c1cccc(Nc2nccc3cc(CN4CC(O)C4)cnc23)c1C` [Example 150, 1,1′-((((2,2′-dimethyl-[1,1′-biphenyl]-3,3′-diyl)bis(azanediyl))bis(1,7-naphthyridine-8,3-diyl))bis(methylene))bis(azetidin-3-ol)], less than 25 nM.
Take `Cc1c(Nc2nccc3cc(CN4CCOCC4)cnc23)cccc1-c1cccc(Nc2nccc3cc(CN4CCOCC4)cnc23)c1C` [Example 151, 2,2′-dimethyl-N3,N3′-bis(3-(morpholinomethyl)-1,7-naphthyridin-8-yl)-[1,1′-biphenyl]-3,3′-diamine]: the IC50 is less than 25 nM.
In the case of `CC(=O)NCCNCc1cnc2c(Nc3cccc(-c4cccc(Nc5nccc6cc(CNCCNC(C)=O)cnc56)c4C)c3C)nccc2c1` [Example 152, N,N′-((((((2,2′-dimethyl-[1,1′-biphenyl]-3,3′-diyl)bis(azanediyl))bis(1,7-naphthyridine-8,3-diyl))bis(methylene))bis(azanediyl))bis(ethane-2,1-diyl))diacetamide], the IC50 was less than 25 nM.
As for `Cc1c(Nc2nccc3cc(CN4CC[C@H](N(C)C)C4)cnc23)cccc1-c1cccc(Nc2nccc3cc(CN4CC[C@H](N(C)C)C4)cnc23)c1C` [Example 153, N3,N3′-bis(3-(((S)-3-(dimethylamino)pyrrolidin-1-yl)methyl)-1,7-naphthyridin-8-yl)-2,2′-dimethyl-[1,1′-biphenyl]-3,3′-diamine], the IC50 was less than 25 nM.
Turning to `Cc1c(Nc2nccc3cc(CNCC(=O)O)cnc23)cccc1-c1cccc(Nc2nccc3cc(CN4CC[C@H](N(C)C)C4)cnc23)c1C` [Example 154, (S)-((8-((3′-((3-((3-(dimethylamino)pyrrolidin-1-yl)methyl)-1,7-naphthyridin-8-yl)amino)-2,2′-dimethyl-[1,1′-biphenyl]-3-yl)amino)-1,7-naphthyridin-3-yl)methyl)glycine], the IC50 is less than 25 nM.

By IC50 is commonly meant the midpoint of a concentration-inhibition curve.
